Data taken from PMC7399337, “Biological Properties and Absolute Configuration of Flavanones From Calceolaria thyrsiflora Graham” (Frontiers in Pharmacology, 2020).
Converted amounts (≈) assume the structure as drawn. Read-outs that look alike come from different tables or passages of the source.

Columns and labels:
[1] = In vitro cytotoxic activity, CyQuant cell viability, 72 h; type: cell-based; details: mouse
Protocol: (§1) The used cell lines include MDA-MB-231 human breast adenocarcinoma cells, B16-F10 mouse metastatic melanoma cells and MEF primary mouse embryonic fibroblast. Cells were maintained in a DMEM high glucose medium (Mediatech, Manassas, VA, USA) supplemented with 10% (MDA-MB-231 and B16-F10) or 15% (MEF) heat-inactivated fetal bovine serum (HyClone Laboratories, South Logan, USA), 100 IU ml^-1 penicillin and 100 μg ml^-1 streptomycin while maintained at 37°C in a 5% CO2 humidified atmosphere. Cell viability was measured using a CyQuant® Direct Cell Proliferation Assay Kit (Life Technologies, Grand Island, NY, USA) following the manufacturer’s instruction. Briefly, 5,000 cells per well were seeded onto a flat-bottom 96-well plate in 200 μL final volume. Six hours after seeding, the culture medium was replaced by the medium containing the tested compounds at 0.01 to 100 µM concentrations in DMSO (0.1% final concentration) during 72 h. Untreated cells (medium containing only 0.1% DMSO) were used as controls. At the end of the incubation, 100 μL of culture medium was removed from each well and replaced by detection reagent solution provided by the kit (which is a 1:5 mixture of the reagent CyQUANT®, direct nucleic acid stain and the reagent labeled as CyQUANT® direct background suppressor I). Cells were incubated for 1 h and fluorescence emission was measured at 535 nm with excitation at 480 nm in a microplate reader (Infinite 200 PRO, Tecan, Grödig, Austria). At least four independent experiments were performed for each concentration. The results from each experiment were transformed into percentage of controls and the LC50 values were graphically obtained from the dose-response curves. The LC50 value was obtained adjusting the dose-response curve to sigmoidal curves (variable slope) using the GraphPad Prisma 6.0 software ([GraphPad-Software, 2015]).

[2] = tested on: MDA-MB-231 human breast adenocarcinoma cells; test: as above; type: cell-based; details: for CC50: Homo sapiens, MDA-MB-231, 72 h, read-out: LC50 ± SD
Protocol: as §1

E. coli 33.1 = test: Antibacterial MIC, CLSI microdilution, human pathogens; type: cell-based; details: Escherichia coli; E. coli 33.1 (multi-resistant); 18 h; read-out: Minimum inhibitory concentration (MIC)
Protocol: (§2) Briefly, stock solutions (5 mg/ml) of compounds in DMSO were diluted in Mueller-Hinton broth (MHB) to the different two-fold assay concentrations. […] The obtained solution was added to MHB and serially two-fold diluted in a 96-well microplate. A sample of 100 μL of inoculum 1.5 × 10^6 colony forming unit (CFU) ml^-1 in MHB was added and then incubated at 37°C for 18 h. The assay was repeated three times. Wells containing MHB, 100 μL of inoculum, and DMSO served as negative controls.

S. aureus NTCC8325-4 = test: as above; type: cell-based; details: Staphylococcus aureus, NTCC83254, 18 h, read-out: Minimum inhibitory concentration (MIC)
Protocol: as §2

S. aureus MRSA 622-4 = test: as above; type: cell-based; details: Staphylococcus aureus, 18 h, read-out: Minimum inhibitory concentration (MIC)
Protocol: as §2

S. aureus MRSA 97-7 = test: as above; type: cell-based; details: Staphylococcus aureus, 18 h, read-out: Minimum inhibitory concentration (MIC)
Protocol: as §2

E. coli ATCC25922 = test: as above; type: cell-based; details: Escherichia coli, 18 h, read-out: Minimum inhibitory concentration (MIC)
Protocol: as §2

15-sLOX = target: T1, 15-sLOX (Glycine max, UniProt P08170); test: In vitro 15-sLOX enzyme assay (absorbance at 234 nm); type: biochemical; details: Flavanones at 10 µM (table footnote); method: 5 µg/ml
T1 construct: purchased Cayman Chemical Item No. 60712
T1 sequence (P08170 1-839): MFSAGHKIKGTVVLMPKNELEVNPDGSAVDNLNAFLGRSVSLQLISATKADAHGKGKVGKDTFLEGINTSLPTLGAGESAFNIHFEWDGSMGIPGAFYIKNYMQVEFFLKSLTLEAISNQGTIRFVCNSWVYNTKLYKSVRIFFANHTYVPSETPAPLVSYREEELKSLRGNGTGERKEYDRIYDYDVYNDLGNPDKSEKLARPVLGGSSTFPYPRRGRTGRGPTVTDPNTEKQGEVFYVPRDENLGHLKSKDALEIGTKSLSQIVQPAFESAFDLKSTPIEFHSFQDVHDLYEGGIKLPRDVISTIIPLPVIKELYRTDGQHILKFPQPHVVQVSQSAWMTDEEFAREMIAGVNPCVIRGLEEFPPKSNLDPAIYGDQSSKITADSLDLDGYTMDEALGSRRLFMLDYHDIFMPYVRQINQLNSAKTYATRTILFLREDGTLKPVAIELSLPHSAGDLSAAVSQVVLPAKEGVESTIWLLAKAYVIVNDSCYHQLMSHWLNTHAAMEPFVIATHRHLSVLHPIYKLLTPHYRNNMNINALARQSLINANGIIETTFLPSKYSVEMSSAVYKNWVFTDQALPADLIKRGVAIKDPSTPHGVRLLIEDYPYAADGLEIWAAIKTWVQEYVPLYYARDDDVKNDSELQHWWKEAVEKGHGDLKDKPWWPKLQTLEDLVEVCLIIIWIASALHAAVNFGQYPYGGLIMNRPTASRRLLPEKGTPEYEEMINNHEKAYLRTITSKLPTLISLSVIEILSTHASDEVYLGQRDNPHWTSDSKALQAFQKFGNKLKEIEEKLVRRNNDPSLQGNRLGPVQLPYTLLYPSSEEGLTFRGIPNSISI
Protocol: The activity of 15-sLOX (Cayman Chemical Item No. 60712) was determined following the formation of reaction products at 234 nm (ϵ = 25,000 M^-1 cm^-1) in a Perkin-Elmer Lambda 25 UV/Vis spectrophotometer. All reactions were performed at a final volume of 2 ml and were constantly stirred using a magnetic bar at room temperature. The reaction medium used contained 25 mM HEPES buffer (pH 7.4), Triton X-100 0.01%, and the arachidonic acid (AA) substrate at a 10 µM concentration determine preliminary percent inhibition (%I). AA concentration was determined quantitatively by allowing the enzymatic reaction to go to completion. The reaction was carried out by adding the inhibitor dissolved in DMSO (5 µg/ml in the reaction medium) to the bucket with the substrate buffer, and finally the enzyme was added. Assays were performed in duplicate on three different days. GraphPad Prism Demo V.7 performed the graphics for IC50 and kinetics studies ([GraphPad-Software-Inc., 2017]).

Structure (SMILES) | CC50 at 72 h ([1]; MEF (non-cancerous cells), 72 h, read-out: LC50 ± SD) [µM] | CC50 [2] [µM] | LC50 ± SD ([2]; MDA-MB-231, 72 h) | MIC (E. coli 33.1) [µg/mL] | MIC (S. aureus NTCC8325-4) [µg/mL] | MIC (S. aureus MRSA 622-4) [µg/mL] | MIC (S. aureus MRSA 97-7) [µg/mL] | MIC (E. coli ATCC25922) [µg/mL] | inhibition at 10 µM (15-sLOX) [%] | CC50 at 72 h [1] [µM]
COc1cc(O)c2c(c1)O[C@H](c1ccc(O)cc1)CC2=O [Compound 1, (-)-(2S)-5,4’-dihydroxy-7-methoxyflavanone] | 146 ± 23.4 | ~1100 | no significant cytotoxic activity | > 100 | > 100 | > 100 | > 100 | > 100 | 7 ± 3.12 | –
COc1cc(O)c2c(c1)O[C@H](c1ccc(O)c(O)c1)CC2=O [Compound 2, (-)-(2S)-5,3’,4’-trihydroxy-7-methoxyflavanone] | – | 48.7 ± 9.32 | – | > 100 | > 100 | > 100 | 50 (≈ 165 µM) | > 100 | 26 ± 3.96 | 31 ± 3.69
